Tested on: male Sprague Dawley rats
Assay: Paw placement test after photothrombotic stroke in the rat
Format: in vivo
Conditions: rat
Method: Animals. All experiments were carried out with the approval of the Malmö-Lund animal review board and according to the ARRIVE guidelines. Animals were housed under reverse light conditions, with the testing performed during the dark period when the rats are active. The experiments were carried out on male Sprague Dawley rats (11 weeks of age, Charles River, Scanbur A/S Karlslunde, Denmark). The studies were subjected to randomization and carried out in a blinded fashion to the investigators who performed the surgeries and behavioral assessment.
Administration of compound. The compound was injected as a bolus dose of 1 ml/kg into the lower quadrant of the abdomen.
Experimental stroke. The animals were anesthetized by isoflurane (approximately 2% in 02 under spontaneous ventilation) and placed into stereotaxic frame. Temperature was monitored during surgery using a rectal temperature probe and animals were kept at 37.0-37.5±0.2° C. by means of a heating pad with feedback control. A sagittal skin incision was made and subcutaneous connective tissue was removed and the skull was dried. Thereafter, the photosensitizer dye Rose Bengal (0.5 mL at 10 mg/mL) was infused in the tail vein. Two minutes after injection, the skull was illuminated with cold light (Schott, KL 1500 LCD) on an area of 8 to 4.5 mm for 15 min (from +4 to −4 mm antero-posterior and from 0.5 to 5 mm on the left from bregma). Thereafter the tail and the scalp incisions were sutured and the rats transferred to their home cage. The functional deficit was assessed 2 h after the onset of the stroke using the limb placement test and only the animals having a score 0, for both fore- and hindlimb contralateral to the brain damaged hemisphere were used for the study.
Test of neurological function. The paw placement test. The cortical damage inflicted by the phothrombosis, causes a deficit due to neuronal loss in the sensori-motor area and depression of functions in neuronal networks in the vicinity of the lesion. […] This test provides information on the tactile/proprioceptive response to limb stimulation. Animals were placed with all 4 paws on the table top, and the paws to be tested along the edge. The rat was moved over the edge so the paws to be tested loose contact with the table surface. The ability of the animals to place the limb back onto the table surface when the rat was moved towards the edge was evaluated. Importantly, the head was held at 45° angle, so that visual and whisker/snout stimulation was prevented. A prompt placement of the limb onto the table was scored as 1. Incomplete placing of the limb was scored as 0.5, and complete extension of the limb and paw was scored as 0. In order to obtain groups with a similar functional deficit prior to treatment of the animals with drugs or vehicle, selective sorting was performed on day 2 after experimental stroke, a time point of recovery when the infarct development had subsided.
Administration of the compounds. The compounds were administrated orally (p.o.) by catheters placed in the stomach. The amount of solutions were 0.2 ml/rat and 0.1 ml/mice.
Induction of stroke was as made as in Example 1 for rats and as in Example 2 in mice. Assessment of neurological function was performed as in Example 1 for rats and as in Example 2 for mice. The animals were perfused and immunostained as in Example 1, and the infarct size was assessed as in Example 1.
Induction of stroke, assessment of neurological function, perfusion of animals, immunostaining and assessment of infarct size were made as in Example 1.

[1] = time course of recovery of function, treatment starting 2 days after stroke

Cc1nc(C#Cc2cccnc2)cs1 [SIN007, 3-[(2methyl-1,3-thiazol-4-yl)ethynyl]pyridine]
paw placement score (recovery of paw placement function) (5 mg/kg i.p. daily starting 2 days after stroke, assessed at 14 days after stroke, vs vehicle, p<0.001, FIG. 1A): almost complete recovery of paw placement function | persistence of recovery of function after termination of the treatment (after 5 days treatment, FIG. 1D): at least 7 days | days of treatment for a maximal treatment effect [1]: 14 days | days of treatment required for a treatment effect [1]: At least 4 days
